Experimental data as given in patent US20150344457A1, “METHODS OF INHIBITING PRMT5” (EPIZYME, INC., priority 2012, published 2015).

Tested on: Z-138 cells
Assay: Z-138 Methylation Assay (In Cell Western for symmetric di-methyl arginine and DNA content)
Type: cell-based
Conditions: Homo sapiens, Table D-2, read-out: ICW EC50
Outline: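 Z-138 cells at 50,000 cells/mL exposed to compound 96 h at 37 °C, then attached to poly-D-lysine plates, fixed with paraformaldehyde and probed with anti-symmetric di-methyl arginine plus DRAQ5 DNA stain. 800/700 nm ratio normalized to DMSO and 3 μM reference controls; IC50 from triplicate wells.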

SMILES	EC50
COC(COc1cccc(CNC2CCCC2)c1)CN1CCc2ccccc2C1 (centres unmarked) [Compound D32]	> 20000 nM
OC(CNc1cccc(CNC2CCCC2)c1)CN1CCc2ccccc2C1 (centres unmarked) [Compound D39]	1000 to 10000 nM
OC(COc1cccc(-c2ccccc2)c1)CN1CCc2ccccc2C1 (centres unmarked) [Compound D43]	1000 to 10000 nM
OC(COc1ccc(C2CCCNC2)cc1)CN1CCc2ccccc2C1 (centres unmarked) [Compound D47]	101 to 1000 nM
OC(COc1cccc(-c2ccc3c(c2)OCO3)c1)CN1CCc2ccccc2C1 (centres unmarked) [Compound D59]	10000 to 40000 nM
OC(COc1cccc(-c2cc(C(F)(F)F)ccc2Cl)c1)CN1CCc2ccccc2C1 (centres unmarked) [Compound D62]	1000 to 10000 nM
CS(=O)(=O)c1ccc(-c2cccc(OCC(O)CN3CCc4ccccc4C3)c2)cc1 (centres unmarked) [Compound D63]	1000 to 10000 nM
OC(COc1cccc(-c2cccc3cccnc23)c1)CN1CCc2ccccc2C1 (centres unmarked) [Compound D65]	101 to 1000 nM
OCc1cccc(-c2cccc(OCC(O)CN3CCc4ccccc4C3)c2)c1 (centres unmarked) [Compound D72]	1000 to 10000 nM
COc1ccc(-c2cccc(OCC(O)CN3CCc4ccccc4C3)c2)cc1 (centres unmarked) [Compound D75]	1000 to 10000 nM
CC1c2ccccc2CCN1CC(O)COc1cccc(-c2ccc3ncn(C)c3c2)c1 (centres unmarked) [Compound D80]	> 20000 nM
OC(COc1cccc(-c2ccc3c(c2)OCCO3)c1)CN1CCc2ccccc2C1 (centres unmarked) [Compound D85]	1000 to 10000 nM
Cn1ncc2c1CN(c1cccc(OCC(O)CN3CCc4ccccc4C3)c1)CC2 (centres unmarked) [Compound D216]	1000 to 10000 nM
CN1CC(n2cnc3ccc(-c4cccc(OCC(O)CN5CCc6ccccc6C5)c4)cc32)C1 (centres unmarked) [Compound D218]	101 to 1000 nM
CN1CCC(n2cnc3ccc(-c4cccc(OCC(O)CN5CCc6ccccc6C5)c4)cc32)C1 (centres unmarked) [Compound D219]	101 to 1000 nM
CN1CCC(n2cnc3ccc(-c4cccc(OCC(O)CN5CCc6ccccc6C5)c4)cc32)CC1 (centres unmarked) [Compound D221]	101 to 1000 nM
OC(COc1cccc(-c2cccc3[nH]cnc23)c1)CN1CCc2ccccc2C1 (centres unmarked) [Compound D223]	101 to 1000 nM

SMILES	EC50
Cn1cc2ccc(-c3cc(NCC(O)CN4CCc5ccccc5C4)ncn3)cc2n1 (centres unmarked) [Compound D224]	101 to 1000 nM
O=C(Cn1ccc2cnc(-c3ccnc(NCC(O)CN4CCc5ccccc5C4)c3)nc21)N1CCCC1 (centres unmarked) [Compound D233]	< 100 nM
O=C(Cn1ccc2cnc(-c3ccnc(NCC(O)CN4CCc5ccccc5C4)c3)nc21)N1CCOCC1 (centres unmarked) [Compound D234]	< 100 nM
Cn1cc2ccc(-c3ccnc(NCC(O)CN4CCc5ccccc5C4)c3)cc2n1 (centres unmarked) [Compound D236]	101 to 1000 nM
Cn1cnc2ccc(-c3ccnc(NCC(O)CN4CCc5ccccc5C4)c3)nc21 (centres unmarked) [Compound D238]	< 100 nM
OC(CNc1cc(-c2ccc3ncn(C4CCNCC4)c3c2)ccn1)CN1CCc2ccccc2C1 (centres unmarked) [Compound D241]	101 to 1000 nM
CC(=O)N1CCC(n2cnc3ccc(-c4ccnc(NCC(O)CN5CCc6ccccc6C5)c4)cc32)CC1 (centres unmarked) [Compound D242]	101 to 1000 nM
CN1CCN(C(=O)Cn2ccc3cnc(-c4cccc(OCC(O)CN5CCc6ccccc6C5)c4)nc32)CC1 (centres unmarked) [Compound D244]	101 to 1000 nM
O=C(Cn1cnc2ccc(-c3cccc(OCC(O)CN4CCc5ccccc5C4)c3)cc21)N1CCCCC1 (centres unmarked) [Compound D249]	101 to 1000 nM
OC(CNc1cc(-c2ccc3ncn(C4CCOCC4)c3c2)ccn1)CN1CCc2ccccc2C1 (centres unmarked) [Compound D251]	101 to 1000 nM
CN1CCC(n2cnc3ccc(-c4ccnc(NCC(O)CN5CCc6ccccc6C5)c4)cc32)CC1 (centres unmarked) [Compound D252]	101 to 1000 nM
OC(CNc1cc(-c2ncc3ccn(C4CCNCC4)c3n2)ccn1)CN1CCc2ccccc2C1 (centres unmarked) [Compound D255]	< 100 nM
O=C(Cn1cnc2ccc(-c3cccc(OCC(O)CN4CCc5ccccc5C4)c3)cc21)N1CCCC1 (centres unmarked) [Compound D263]	101 to 1000 nM
O=C(Cn1cnc2ccc(-c3cccc(OCC(O)CN4CCc5ccccc5C4)c3)cc21)N1CCOCC1 (centres unmarked) [Compound D264]	1000 to 10000 nM
OC(CNc1cc(-c2ccc3ncn(C4COC4)c3c2)ccn1)CN1CCc2ccccc2C1 (centres unmarked) [Compound D265]	101 to 1000 nM
Cc1ncc2ccc(-c3cccc(OCC(O)CN4CCc5ccccc5C4)c3)cn12 (centres unmarked) [Compound D266]	1000 to 10000 nM
CN1CCN(C(=O)Cn2cnc3ccc(-c4cccc(OCC(O)CN5CCc6ccccc6C5)c4)cc32)CC1 (centres unmarked) [Compound D270]	101 to 1000 nM

The remaining lines, values ahead:

EC50	SMILES
1000 to 10000 nM	O=C(c1ccc(Cn2nccc2-c2ccc(OCC(O)CN3CCc4ccccc4C3)cc2)cc1)N1CCCC1 (centres unmarked) [Compound D31]
101 to 1000 nM	Cn1cnc2ccc(-c3cccc(OCC(O)CN4CCc5ccccc5C4)c3)cc21 (centres unmarked) [Compound D45]
101 to 1000 nM	CC(Oc1cccc(CNC2CCCC2)c1)C(O)CN1CCc2ccccc2C1 (centres unmarked) [Compound D49]
101 to 1000 nM	CN(CC(O)CN1CCc2ccccc2C1)c1cccc(CNC2CCCC2)c1 (centres unmarked) [Compound D53]
1000 to 10000 nM	OC(COc1cccc(-c2ccc3cn[nH]c3c2)c1)CN1CCc2ccccc2C1 (centres unmarked) [Compound D58]
101 to 1000 nM	Cn1cnc2cc(-c3cccc(OCC(O)CN4CCc5ccccc5C4)c3)ccc21 (centres unmarked) [Compound D60]
1000 to 10000 nM	CC(=O)c1cccc(-c2cccc(OCC(O)CN3CCc4ccccc4C3)c2)c1 (centres unmarked) [Compound D67]
10000 to 40000 nM	OC(COc1cccc(-c2cccc(F)c2F)c1)CN1CCc2ccccc2C1 (centres unmarked) [Compound D68]
1000 to 10000 nM	COc1cccc(-c2cccc(OCC(O)CN3CCc4ccccc4C3)c2)c1 (centres unmarked) [Compound D74]
101 to 1000 nM	CC(C)n1cnc2ccc(-c3cccc(OCC(O)CN4CCc5ccccc5C4)c3)cc21 (centres unmarked) [Compound D81]
1000 to 10000 nM	COc1ccc(Cn2cnc3ccc(-c4cccc(OCC(O)CN5CCc6ccccc6C5)c4)cc32)cc1 (centres unmarked) [Compound D82]
1000 to 10000 nM	OC(COc1cccc(-c2ccc3nc[nH]c3c2)c1)CN1CCc2ccccc2C1 (centres unmarked) [Compound D83]
1000 to 10000 nM	OC(COc1cccc(-c2ccc3nn[nH]c3c2)c1)CN1CCc2ccccc2C1 (centres unmarked) [Compound D84]
1000 to 10000 nM	OC(COc1cccc(-c2cccc3c2oc2ccccc23)c1)CN1CCc2ccccc2C1 (centres unmarked) [Compound D86]
1000 to 10000 nM	COc1ccc(-c2cccc(OCC(O)CN3CCc4ccccc4C3)c2)c(Cl)c1 (centres unmarked) [Compound D88]
1000 to 10000 nM	OC(COc1cccc(-c2cnc3ccccc3c2)c1)CN1CCc2ccccc2C1 (centres unmarked) [Compound D89]
1000 to 10000 nM	COc1ccc(-c2cccc(OCC(O)CN3CCc4ccccc4C3)c2)c(C)c1 (centres unmarked) [Compound D90]
1000 to 10000 nM	OC(COc1cccc(-c2ccccc2Cl)c1)CN1CCc2ccccc2C1 (centres unmarked) [Compound D92]
1000 to 10000 nM	OC(COc1cccc(-c2ccc3ncn(C4CNC4)c3c2)c1)CN1CCc2ccccc2C1 (centres unmarked) [Compound D208]
101 to 1000 nM	OC(COc1cccc(-c2ccc3ncn(C4CCNC4)c3c2)c1)CN1CCc2ccccc2C1 (centres unmarked) [Compound D209]
101 to 1000 nM	Cn1cc2ccc(-c3cccc(OCC(O)CN4CCc5ccccc5C4)c3)nc2n1 (centres unmarked) [Compound D210]
1000 to 10000 nM	Cn1cnc2ccc(-c3cc(NCC(O)CN4CCc5ccccc5C4)ccn3)cc21 (centres unmarked) [Compound D217]
101 to 1000 nM	OC(COc1cccc(-c2ccc3ncn(C4CCNCC4)c3c2)c1)CN1CCc2ccccc2C1 (centres unmarked) [Compound D220]

EC50	SMILES
101 to 1000 nM	O=C(Cn1ccc2cnc(-c3cccc(OCC(O)CN4CCc5ccccc5C4)c3)nc21)N1CCOCC1 (centres unmarked) [Compound D222]
101 to 1000 nM	Cn1ncc2ccc(-c3ccnc(NCC(O)CN4CCc5ccccc5C4)c3)cc21 (centres unmarked) [Compound D226]
101 to 1000 nM	OC(CNc1cccc(-c2cccc3[nH]cnc23)c1)CN1CCc2ccccc2C1 (centres unmarked) [Compound D235]
101 to 1000 nM	Cn1ccc2ccc(-c3cc(NCC(O)CN4CCc5ccccc5C4)ncn3)cc21 (centres unmarked) [Compound D237]
< 100 nM	Cn1ccc2cnc(-c3ccnc(NCC(O)CN4CCc5ccccc5C4)c3)nc21 (centres unmarked) [Compound D239]
101 to 1000 nM	OC(CNc1cc(-c2ccc3ncn(C4CCNC4)c3c2)ccn1)CN1CCc2ccccc2C1 (centres unmarked) [Compound D240]
101 to 1000 nM	CC(=O)N1CCC(n2ccc3cnc(-c4cccc(OCC(O)CN5CCc6ccccc6C5)c4)nc32)CC1 (centres unmarked) [Compound D243]
101 to 1000 nM	CNC(=O)Cn1ccc2cnc(-c3ccnc(NCC(O)CN4CCc5ccccc5C4)c3)nc21 (centres unmarked) [Compound D245]
< 100 nM	O=C(Cn1ccc2cnc(-c3ccnc(NCC(O)CN4CCc5ccccc5C4)c3)nc21)N1CCCCC1 (centres unmarked) [Compound D246]
< 100 nM	CN1CCN(C(=O)Cn2ccc3cnc(-c4ccnc(NCC(O)CN5CCc6ccccc6C5)c4)nc32)CC1 (centres unmarked) [Compound D247]
101 to 1000 nM	Cn1ncc2cnc(-c3cccc(OCC(O)CN4CCc5ccccc5C4)c3)cc21 (centres unmarked) [Compound D248]
101 to 1000 nM	CN1CCC(n2cnc3ccc(-c4ccnc(NCC(O)CN5CCc6ccccc6C5)c4)cc32)C1 (centres unmarked) [Compound D250]
101 to 1000 nM	OC(COc1cccc(-c2ncc3ccn(C4CCNCC4)c3n2)c1)CN1CCc2ccccc2C1 (centres unmarked) [Compound D253]
101 to 1000 nM	OC(CNc1cc(-c2ncc3ccn(C4CNC4)c3n2)ccn1)CN1CCc2ccccc2C1 (centres unmarked) [Compound D254]
< 100 nM	CC(=O)N1CCC(n2ccc3cnc(-c4ccnc(NCC(O)CN5CCc6ccccc6C5)c4)nc32)CC1 (centres unmarked) [Compound D256]
101 to 1000 nM	O[C@@H](COc1cccc(-c2cccc3cccnc23)c1)CN1CCc2ccccc2C1 [Compound D257]
101 to 1000 nM	Cn1cc2ccc(-c3cccc(NCC(O)CN4CCc5ccccc5C4)c3)nc2n1 (centres unmarked) [Compound D261]
1000 to 10000 nM	CNC(=O)Cn1cnc2ccc(-c3cccc(OCC(O)CN4CCc5ccccc5C4)c3)cc21 (centres unmarked) [Compound D262]
101 to 1000 nM	OC(COc1cccc(-c2ccc3ncn(C4COC4)c3c2)c1)CN1CCc2ccccc2C1 (centres unmarked) [Compound D269]
101 to 1000 nM	Cn1cnc2ccc(-c3cc(NCC(O)CN4CCc5ccccc5C4)n[nH]3)cc21 (centres unmarked) [Compound D271]
101 to 1000 nM	Cn1cnc2cc(-c3cc(NCC(O)CN4CCc5ccccc5C4)n[nH]3)ccc21 (centres unmarked) [Compound D272]
101 to 1000 nM	CC(=O)N(CC(O)CN1CCc2ccccc2C1)c1cccc(-c2ccc3ncn(C)c3c2)c1 (centres unmarked) [Compound D273]
101 to 1000 nM	Cn1cnc2ccc(-c3ccnc(NC[C@H](O)CN4CCc5ccccc5C4)c3)cc21 [Compound D275]
